Earlier results in patent US20170266197A1, “METHODS AND COMPOSITIONS FOR TREATING HEPATITIS B VIRUS INFECTIONS” (Indiana University Research and Technology Corporation, priority 2014, published 2017).

Test system: chronic hepatitis B infection

For alpha interferon, the “patients who show a long term benefit” value (many patients relapse after treatment is stopped) is given as “about 30%”, the “patients who respond to the treatment” value (of the chronic carriers obtaining this therapy) is given as “about 40%” and the “viral disappearance in treated patients” value (treated patients) is given as 10-20%.
